Laboratory results taken from ChEMBL document CHEMBL1201862, “PubChem BioAssay data set” (2004).
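Protocol summary: plate cells (96-well), add compound at 5 concentrations, incubate 48 h, interpolate endpoints linearly. The concentration for 50% growth inhibition is given as GI50.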 Activity calls are given as the source filed them. Cut-off read from the data, not from the text of the source: active = GI50 up to about 1.1 µM and inactive = higher.

Experiments:
Assay in all cases: NCI tumour cell line growth inhibition, 48 h
[1] = system: SK-MEL-28
[2] = system: SF-539
[3] = system: CCRF-CEM
[4] = system: NCI-H460
[5] = system: Hs-578T
[6] = system: SK-MEL-2
[7] = system: COLO 205
[8] = system: KM12
[9] = system: TK-10
[10] = system: K562
[11] = system: RXF 393
[12] = system: OVCAR-8
[13] = system: SN12C
[14] = system: NCI/ADR-RES
[15] = system: 786-0
[16] = system: OVCAR-5
[17] = system: NCI-H23
[18] = system: HT-29
[19] = system: MDA-MB-231
[20] = system: MDA-N

Measured: GI50

Cc1noc(NC(=O)Nc2ccccc2F)c1C#N
inactive: [1] > 100 µM | [2] > 100 µM | [3] 70.6 µM | [4] 6.55 µM | [5] > 34.4 µM | [6] > 39.8 µM | [7] > 100 µM | [8] > 100 µM | [9] > 27.2 µM | [10] > 45.8 µM | [11] > 66.8 µM | [12] > 90.8 µM | [13] 16.1 µM | [14] > 100 µM | [15] 7.69 µM | [16] > 28.4 µM | [17] > 81.3 µM

COC(=O)c1cc(C(=O)OC)c(CC(=O)C(=O)NC2C3CC4CC(C3)CC2C4)nc1CC(=O)C(=O)NC1C2CC3CC(C2)CC1C3 (configuration not stated)
inactive: [1] > 100 µM | [2] > 100 µM | [3] > 100 µM | [4] > 100 µM | [6] > 100 µM | [7] > 100 µM | [8] > 100 µM | [9] > 100 µM | [10] > 100 µM | [11] > 100 µM | [12] > 100 µM | [13] > 100 µM | [18] > 100 µM | [15] > 100 µM | [16] > 100 µM | [17] > 100 µM

C/C(=C\COP(=O)(O)OP(=O)(O)O)CC/C=C(\C)CNc1ccc([N+](=O)[O-])cc1
inactive: [19] > 100 µM | [1] > 100 µM | [2] > 100 µM | [3] > 100 µM | [4] > 100 µM | [5] > 100 µM | [6] > 100 µM | [7] > 100 µM | [8] > 100 µM | [9] > 100 µM | [10] > 100 µM | [11] > 100 µM | [12] > 100 µM | [13] > 100 µM | [18] > 100 µM | [14] > 100 µM | [15] > 100 µM | [16] > 100 µM | [17] > 100 µM

COC1(OC)CC2CCCCC2=C(C)N1S(=O)(=O)c1ccccc1 (configuration not stated)
inactive: [1] > 100 µM | [2] > 100 µM | [3] > 100 µM | [4] > 100 µM | [6] > 100 µM | [7] > 100 µM | [8] > 100 µM | [9] > 100 µM | [10] > 100 µM | [11] > 100 µM | [12] > 100 µM | [13] > 100 µM | [18] > 100 µM | [15] > 100 µM | [16] > 100 µM | [17] > 100 µM

COCn1cnc2c(=O)n(-c3ccc(C)cc3)c(=S)n(-c3ccc(C)cc3)c21
inactive: [19] > 100 µM | [1] > 100 µM | [2] > 100 µM | [3] > 100 µM | [4] > 100 µM | [5] > 100 µM | [6] > 100 µM | [7] > 100 µM | [8] > 100 µM | [9] > 100 µM | [10] > 100 µM | [11] 78.3 µM | [12] > 100 µM | [13] > 100 µM | [18] > 100 µM | [14] > 100 µM | [15] > 100 µM | [16] > 100 µM | [17] > 100 µM

[N-]=[N+]=Nc1nnc(CCCCc2nnc(N=[N+]=[N-])o2)o1
inactive: [1] > 100 µM | [2] > 100 µM | [3] > 100 µM | [4] > 100 µM | [6] > 100 µM | [7] > 100 µM | [8] 91.4 µM | [9] > 100 µM | [10] > 100 µM | [11] > 100 µM | [12] > 100 µM | [13] > 100 µM | [18] > 100 µM | [15] > 100 µM | [16] > 100 µM | [17] > 100 µM

Cc1c(/C=N\NC(=S)N2CCN(C(=S)N/N=C\c3c(C)n(C)n(-c4ccccc4)c3=O)CC2)c(=O)n(-c2ccccc2)n1C
inactive: [19] 24 µM | [2] > 100 µM | [4] 42 µM | [5] 33 µM | [6] 13.1 µM | [7] > 100 µM | [8] 69.7 µM | [9] 5.7 µM | [11] 67.9 µM | [18] 13.1 µM | [14] > 100 µM | [15] 33.7 µM | [16] > 100 µM | [17] 50.9 µM

CCOC(=O)c1c(NC(=O)OC)c(C#N)c2n1CCCCC2
inactive: [19] 35.7 µM | [1] > 100 µM | [2] > 100 µM | [3] > 100 µM | [4] > 100 µM | [5] > 100 µM | [6] > 100 µM | [7] > 100 µM | [8] > 100 µM | [9] > 100 µM | [10] > 100 µM | [11] > 100 µM | [12] > 100 µM | [18] > 100 µM | [14] > 100 µM | [15] > 100 µM | [17] > 100 µM

Nc1ncnc2c1sc(=S)n2-c1ccccc1
inactive: [1] > 100 µM | [2] > 100 µM | [3] > 100 µM | [4] > 100 µM | [6] > 100 µM | [7] > 100 µM | [8] > 100 µM | [9] > 100 µM | [10] > 100 µM | [11] > 100 µM | [12] > 100 µM | [13] > 100 µM | [18] > 100 µM | [15] > 100 µM | [16] > 100 µM | [17] > 100 µM

N#Cc1cc([N+](=O)[O-])ccc1NC(=O)C(F)(F)F
inactive: [1] > 100 µM | [2] > 100 µM | [3] > 84.7 µM | [4] > 42.3 µM | [6] > 100 µM | [7] 20.7 µM | [8] > 100 µM | [9] > 100 µM | [10] > 60.5 µM | [11] > 56.6 µM | [12] > 84.3 µM | [13] > 100 µM | [18] > 45.5 µM | [15] > 49.7 µM | [16] > 100 µM | [17] > 100 µM

CCN(CC)c1ccc(/N=N/c2ccc(-c3nc4cccn(C)c-4n3)cc2)cc1
inactive: [2] 12.7 µM | [3] 3.75 µM | [4] 5.07 µM | [6] 17.5 µM | [7] 14.3 µM | [8] 8.95 µM | [9] 27.9 µM | [10] 2.86 µM | [11] 3.21 µM | [12] 10.3 µM | [13] 6.04 µM | [18] 1.98 µM | [15] 4.09 µM | [16] 3.56 µM | [17] 11.4 µM

COC(CCC[N+](C)(C)C)CC[N+](C)(C)C (configuration not stated)
inactive: [1] > 100 µM | [2] > 100 µM | [3] > 100 µM | [4] > 100 µM | [20] > 100 µM | [7] > 100 µM | [9] > 100 µM | [10] > 100 µM | [11] > 100 µM | [12] > 100 µM | [13] > 100 µM | [18] > 100 µM | [14] > 100 µM | [15] > 100 µM | [16] > 100 µM | [17] > 100 µM
